Test results as given in patent US7514432B2, “Compounds and methods of treating cell proliferative diseases, retinopathies and arthritis” (Exonhit Therapeutics SA, priority 2003, dated 2009).

Legend:
HepG2 = experiment: Cell viability assay (MTT), HepG2; type: cell-based; details: Homo sapiens, 10% FBS, 16-hours treatment, 1% DMSO
Method: (§1) Table 15: 16-hour cell viability assay (MTT) in the presence of 10% Fetal Bovine Serum and 1% DMSO, in HCT116, MDA-MB-231, NIH3T3, HepG2 and primary hepatocytes. 5 10^4 to 10 10^4 cells were seeded in 48-well plates in growth medium containing 10% FBS, with or without various concentrations of test compounds. Data were analyzed and IC50s were calculated from dose-reponse curves using GraphPad Prism. Results summarized in the tables are mean±SEM of 1 to 2 independent experiments.
(§2) In order to determine a compound's effect on cell viability, microculture tetrazolium assays (MTT) were performed as described by Carmichael et al. (1996) with modifications. Four human tumoral cell lines, namely HCT116 colon adenocarcinoma, H460 lung carcinoma, MCF-7 and MDA-MB-231 breast carcinoma cell lines, DLD1 colorectal adenocarcinoma, HeLa adenocarcinoma, HepG2 hepatocellular carcinoma. 3 immortalized but non tumorigenic cell lines, namely NIH3T3 mouse fibroblasts (American Type Culture Collection) and primary hepatocytes (Biopredic international), cultured according to their recommendations together with Human Microvasculature Endothelial Cell line HMEC1 (National Center for Infectious Diseases). Briefly, cells were seeded in 48-well plates 24 hours before drug addition. Cells were treated with 0 to 200 μM (11 concentrations) of compound solubilized in DMSO, adjusting the final concentration of DMSO to 1% in the well. 16 hours, and three or six days after treatment, 0.5 mg/ml MTT (Sigma) was added to the medium and cells were incubated for 1-5 hours at 37° C. before solubilization of formazan crystals in 100% DMSO. Absorbance was measured using a spectrophotometer at a wavelength of 550 nm. Data was analyzed using the GraphPad Prism software (GraphPad Software, Inc.), and IC50 (dose leading to 50% cell death) was calculated from the dose-response curves.

[1] = Screening in vivo rising and repeated-dose toxicity study in rats; details: for body weight: at 300 mg/kg/day p.o.; for biological changes (hematology and blood biochemistry) / clinical signs / death during the study / tolerability: p.o. 10, 50, 300 mg/kg per day, 3 days each
Method: Screening in vivo rising and repeated-dose toxicity study in rats was performed on 3 rats per compound with the following schedule: • a. day 1 to day 3: 10 mg/kg p.o. per day, • b. day 4 to day 6: 50 mg/kg p.o. per day, • c. day 7 to day 9: 300 mg/kg p.o. per day.
Clinical signs, bodyweight, food consumption, and blood parameters were followed.

Primary Hepatocytes = experiment: Cell viability assay (MTT), primary hepatocytes; type: cell-based; details: Hepatocyte, 10% FBS, 16-hours treatment, 1% DMSO
Method: as §1, §2

MDA-MB-231 = experiment: Boyden chamber migration assay, MDA-MB-231; type: cell-based, human; details: Homo sapiens, FBS as chemoattractant
Method: (§3) FIG. 4: Migration assays. (A) Wound healing assay in REF cells. 7.6 10^4 cells were plated on coverslips 48 hours before the experiment. The cells were pre-treated for 30 min. with the compounds, and then a scrape was done using a pipette tip. The scraped coverslips in treatment medium were put under a thermostated microscope coupled to a video camera. Movies were analyzed as described in material and methods, and velocity and total distance covered by the cells were evaluated. Bar graphs represent the mean±SEM of 2 to 4 experiments. (B) Boyden chamber migration assay in HMEC1, NIH3T3 and MDA-MB-231 cells. 5 10^4 to 7.5 10^4 Cells, resuspended in culture medium with or without FBS and with different compound concentrations, were seeded in the upper Boyden blind well on top of 8 μm pore-sized filters. The ability of the cells to migrate through the filter was assayed in the absence or presence of FBS in the lower Boyden chamber. After 16 hours incubation, the medium was removed and replaced with calcein-AM containing medium. After labeling, cells were washed with HBSS and fluorescence was read in a fluorescence plate reader. Fluorescence values were normalized against the fluorescence obtained for the 1% DMSO control. The data plotted are the means±SEM of 2 to 4 independent experiments.
(§4) An essential characteristic of malignant cells is their ability to migrate, invade host tissues and to produce metastases. In order to evaluate the capacity of one compound to affect the ability of tumoral cells to migrate, migration assays were performed using highly invasive tumoral cells MDA-MB-231, endothelial cells HMEC1 or fibroblastic cells NIH3T3. This assay was performed using Falcon HTS Fluoroblock inserts. Culture medium containing Fetal Bovine Serum (FBS; which is used as a chemoattractant) was added to the plate wells and 2 10^4 to 7.5 10^4 cells resuspended in medium without FBS and with 0.1% BSA were added to each insert well. The compound of interest was added to the medium in both the upper and the lower chambers. Plates were incubated for 16 hours at 37° C. Following incubation, the medium was removed from the upper chamber and the entire insert plate was transferred to a second 24-well plate containing 4 μg/ml Calcein-AM™ in medium containing 0.1% BSA. The plates were incubated for one hour at 37° C., rinsed with Hanks Buffered Saline (HBSS). Fluorescence data were collected using Fluoroskan Ascent FL fluorescence plate reader at an excitation wavelength (Ex) of 485 nm and emission wavelength (Em) of 517 nm. Only those labelled cells that passed through the Matrigel layer and the membrane were detected. Data were analyzed using the GraphPad Prism software and IM50s (dose at which 50% inhibition of cell migration is observed) were calculated.

NIH3T3 = experiment: Boyden chamber migration assay, NIH3T3; type: cell-based, mouse; details: Mus musculus, FBS as chemoattractant
Method: as §3, §4

HeLa = experiment: Cell viability assay (MTT), HeLa; type: cell-based; details: Homo sapiens, 72 h, 10% FBS, 3-day treatment, 1% DMSO
Method: Table 14: 3-day cell viability assay (MTT) in the presence of 10% Fetal Bovine Serum and 1% DMSO, in DLD1, HCT116, MDA-MB-231, MCF7 and HeLa cells. 7.5 10^3 to 1.5 10^4 cells were seeded in 48-well plates in growth medium containing 10% FBS, with or without various concentrations of test compounds. Data were analyzed and IC50s were calculated from dose-response curves using GraphPad Prism. Results summarized in the tables are mean±SEM of 1 to 7 independent experiments.
as §2

Compound	IC50 (HepG2) [µM]	body weight [1]	biological changes (hematology and blood biochemistry) [1]	clinical signs [1]	death during the study [1]	tolerability [1]	IC50 (Primary Hepatocytes) [µM]	IC50 (MDA-MB-231; MDA-MB-231, 16 hours) [µM]	IC50 (NIH3T3; NIH3T3, 16 hours) [µM]	IC50 (HeLa) [µM]	IC50 (MDA-MB-231; MDA-MB-231, 16 h) [µM]	IC50 (NIH3T3; NIH3T3, 16 h) [µM]
Cl.Cl.O=c1cc(CN2CCOCC2)occ1OCCCCCSc1ccnc2cc(C(F)(F)F)ccc12 [EHT 1864, 5-(5-(7-(Trifluoromethyl)quinolin-4-ylthio)pentyloxy)-2-(morpholinomethyl)-4H-pyran-4-one dihydrochloride]	60	mean body weight loss	Some limited biological changes	Minimal clinical signs	No death occurred	quite well tolerated up to 300 mg/kg/day	> 50	5.1 ± 1.9	20.4 ± 3.5	23.3	–	–
Cl.Cl.Cl.O=c1cc(CN2CCNCC2)occ1OCCCCCSc1ccnc2cc(C(F)(F)F)ccc12 [EHT 8560, 5-(5-(7-(Trifluoromethyl)quinolin-4-ylthio)pentyloxy)-2-((piperazin-1-yl)methyl)-4H-pyran-4-one trihydrochloride]	9.75	mean body weight loss	Some limited biological changes	Minimal clinical signs	No death occurred	quite well tolerated up to 300 mg/kg/day	17.3	–	–	4.4	4.5 ± 2.4	10 ± 0.6
CN1CCN(Cc2cc(=O)c(OCCCCCSc3ccnc4cc(C(F)(F)F)ccc34)co2)CC1.Cl.Cl.Cl [EHT 9241, 5-(5-(7-(Trifluoromethyl)quinolin-4-ylthio)pentyloxy)-2-((4-methylpiperazin-1-yl)methyl)-4H-pyran-4-one trihydrochloride]	11.3	mean body weight loss	Some limited biological changes	Minimal clinical signs	No death occurred	quite well tolerated up to 300 mg/kg/day	29.6	–	–	5.7	2.7 ± 1	4.7 ± 0.6
